Experimental data published in ChEMBL document CHEMBL1121981, “Synthesis and biological evaluation of a metazocine-containing enkephalinamide. Evidence for nonidentical roles of the tyramine moiety in opiates and opioid peptides” (J Med Chem, 1982).
The source made the active and inactive calls. The rule behind the calls is not given here.

Experiments:
Format in all cases: functional, tissue-based
Mu-type opioid receptor = Mu-type opioid receptor (Cavia porcellus, UniProt P97266); assay: Mu opioid receptor agonist activity as inhibition of electrically stimulated mysenteric plexus in guinea pig ileum
[1] = molecular target: Mu-type opioid receptor (Cavia porcellus) (UniProt P97266); assay: Mu opioid receptor agonist activity was determined by inhibition of electrically stimulated myenteric plexus in guinea pig ileum
[2] = molecular target: Mu-type opioid receptor (Cavia porcellus) (UniProt P97266); assay: Mu opioid receptor agonist activity was determined by inhibition of electrically stimulated myenteric plexus in guinea pig ileum; Inactive
[3] = molecular target: Mu-type opioid receptor (Cavia porcellus) (UniProt P97266); assay: Mu opioid receptor agonist activity was determined by inhibition of electrically stimulated myenteric plexus in guinea pig ileum; Inactive, weak antagonism with agonist morphine PA2 of <6; conditions: filed as antagonist

Chain of Mu-type opioid receptor (P97266 whole entry): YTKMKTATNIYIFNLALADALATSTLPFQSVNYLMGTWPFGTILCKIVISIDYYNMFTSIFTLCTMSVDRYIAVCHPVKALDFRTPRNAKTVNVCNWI
Chain of Mu-type opioid receptor (Cavia porcellus) (P97266 whole entry): as above

| Structure (SMILES) | IC50 (Mu-type opioid receptor) [nM] | Relative potency [2] | also measured |
| --- | --- | --- | --- |
| CSCC[C@H](NC(=O)[C@H](Cc1ccccc1)NC(=O)CNC(=O)CNC(=O)C1CC2(C)c3cc(O)ccc3CC(C2C)N1C)C(N)=O (some centres not stated) | 7970 |  |  |
| CSCC[C@H](NC(=O)[C@H](Cc1ccccc1)NC(=O)CNC(=O)[C@@H](C)NC(=O)[C@@H](N)Cc1ccc(O)cc1)C(N)=O | 17.4 |  | Relative potency [1]: 329 |
| CC1C2(C)CCN(C)C1(C(N)=O)Cc1ccc(O)cc12 (configuration not stated) |  | inactive |  |
| CSCC[C@@H](NC(=O)[C@H](Cc1ccccc1)NC(=O)CNC(=O)CNC(=O)C1CC2(C)c3cc(O)ccc3CC(C2C)N1C)C(N)=O (some centres not stated) |  |  | Relative potency [1]: 0.007 |
| CC1C2(C)CCN(C)C1(C#N)Cc1ccc(O)cc12 (racemic) |  | inactive |  |
| CC1C2Cc3ccc(O)cc3C1(C)CC(C(N)=O)N2C (single isomer, unassigned; (+)) |  | inactive |  |
| CSCC[C@@H](NC(=O)[C@H](Cc1ccccc1)NC(=O)CNC(=O)CNC(=O)C12Cc3ccc(O)cc3C(C)(CCN1C)C2C)C(N)=O (single isomer, unassigned; (+)) |  | inactive |  |
| CSCC[C@@H](NC(=O)[C@H](Cc1ccccc1)NC(=O)CNC(=O)CNC(=O)C1CC2(C)c3cc(O)ccc3CC(C2C)N1C)C(N)=O (single isomer, unassigned; (+)) |  | inactive |  |
| CC1C2Cc3ccc(O)cc3C1(C)CC(C(N)=O)N2C (single isomer, unassigned; (-)) [listing 1 of 2 here] | 6090 |  |  |
| CC1C2(C)CCN(C)C1(C(N)=O)Cc1ccc(O)cc12 (single isomer, unassigned; (-)) [listing 1 of 2 here] | 2820 |  |  |
| CC1C2(C)CCN(C)C1(C(N)=O)Cc1ccc(O)cc12 (single isomer, unassigned; (-)) [listing 2 of 2 here] |  |  | Relative potency [1]: 0.02 |
| CC1C2Cc3ccc(O)cc3C1(C)CC(C(N)=O)N2C (single isomer, unassigned; (-)) [listing 2 of 2 here] |  |  | Relative potency [1]: 0.009 |
| CSCC[C@@H](NC(=O)[C@H](Cc1ccccc1)NC(=O)CNC(=O)CNC(=O)C12Cc3ccc(O)cc3C(C)(CCN1C)C2C)C(N)=O (single isomer, unassigned; (-)) |  |  | Relative potency [3]: Partial antagonist |
| CC1C2Cc3ccc(O)cc3C1(C)CC(C#N)N2C (single isomer, unassigned; form 1) | 510 |  |  |
| CC1C2Cc3ccc(O)cc3C1(C)CC(C#N)N2C (single isomer, unassigned; form 2) | 510 |  |  |
| C[C@H]1[C@@H]2Cc3ccc(O)cc3[C@]1(C)CCN2C [METAZOCINE] | 94 |  |  |
